Reference: patent US12129246B1, “Hydroquinazoline derivatives for the treatment of a disease or disorder” (Novartis AG, priority 2023, dated 2024)

How the values were obtained:
human NPR1 = target: T1, human NPR1 (Homo sapiens, UniProt P16066); assay: Cellular cGMP production assay, human NPR1 expressing CHO-K1 cells (CisBio HTRF); type: cell-based; settings: for AC50: cGMP production, 30 min at 37° C., 12-point dose-response from 30 μM; for Human NPR1 Amax (% of ANP): maximum cGMP production as percentage of the maximum cGMP produced with ANP
T1 construct: host or cells: CHO-K1
T1 sequence (P16066 33-1061): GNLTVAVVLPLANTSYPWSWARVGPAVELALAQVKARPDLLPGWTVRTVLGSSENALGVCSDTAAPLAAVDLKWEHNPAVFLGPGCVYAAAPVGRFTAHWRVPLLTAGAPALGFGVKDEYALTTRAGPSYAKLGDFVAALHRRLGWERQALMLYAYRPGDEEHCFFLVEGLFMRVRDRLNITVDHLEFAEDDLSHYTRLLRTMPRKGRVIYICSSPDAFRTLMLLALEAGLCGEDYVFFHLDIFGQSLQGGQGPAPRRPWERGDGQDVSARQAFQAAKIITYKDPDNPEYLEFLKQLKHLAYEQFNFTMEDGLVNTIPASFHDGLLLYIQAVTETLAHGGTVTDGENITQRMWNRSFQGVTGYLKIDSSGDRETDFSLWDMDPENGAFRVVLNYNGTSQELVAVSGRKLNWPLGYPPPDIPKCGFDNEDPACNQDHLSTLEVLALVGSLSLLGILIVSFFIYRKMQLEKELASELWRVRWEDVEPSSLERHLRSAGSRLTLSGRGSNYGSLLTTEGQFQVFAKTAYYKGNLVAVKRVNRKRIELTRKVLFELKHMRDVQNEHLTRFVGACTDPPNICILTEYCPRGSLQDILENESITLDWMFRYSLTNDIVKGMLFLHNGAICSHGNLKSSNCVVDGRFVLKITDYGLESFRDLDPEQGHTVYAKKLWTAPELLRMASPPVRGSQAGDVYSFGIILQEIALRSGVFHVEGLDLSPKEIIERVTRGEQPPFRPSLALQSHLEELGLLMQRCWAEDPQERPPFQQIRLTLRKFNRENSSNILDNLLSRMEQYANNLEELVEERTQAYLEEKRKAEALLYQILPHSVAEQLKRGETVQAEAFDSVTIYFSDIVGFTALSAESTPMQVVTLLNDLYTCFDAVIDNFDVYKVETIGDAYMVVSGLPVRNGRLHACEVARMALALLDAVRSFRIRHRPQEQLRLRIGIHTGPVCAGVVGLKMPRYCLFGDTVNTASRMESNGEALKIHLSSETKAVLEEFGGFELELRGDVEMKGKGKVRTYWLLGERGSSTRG
Procedure, shortened: (§1)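 Step 1: add buffer (PBS, 0.1% BSA, 1 mM IBMX) and compounds, 3-fold series from 30 μM top. Step 2: incubate 30 min, 37 °C. Step 3: lyse; HTRF reagents 1 h at RT.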

monkey NPR1 = monkey NPR1 (Macaca fascicularis, UniProt A0A7N9DBT9); assay: Cellular cGMP production assay, monkey NPR1 expressing CHO-K1 cells (CisBio HTRF); type: cell-based; settings: for Monkey NPR1 Amax (% of ANP): maximum cGMP production as percentage of the maximum cGMP produced with ANP, monkey NPR1 CHO-K1 cells
monkey NPR1, sequence (A0A7N9DBT9 entry or part of it): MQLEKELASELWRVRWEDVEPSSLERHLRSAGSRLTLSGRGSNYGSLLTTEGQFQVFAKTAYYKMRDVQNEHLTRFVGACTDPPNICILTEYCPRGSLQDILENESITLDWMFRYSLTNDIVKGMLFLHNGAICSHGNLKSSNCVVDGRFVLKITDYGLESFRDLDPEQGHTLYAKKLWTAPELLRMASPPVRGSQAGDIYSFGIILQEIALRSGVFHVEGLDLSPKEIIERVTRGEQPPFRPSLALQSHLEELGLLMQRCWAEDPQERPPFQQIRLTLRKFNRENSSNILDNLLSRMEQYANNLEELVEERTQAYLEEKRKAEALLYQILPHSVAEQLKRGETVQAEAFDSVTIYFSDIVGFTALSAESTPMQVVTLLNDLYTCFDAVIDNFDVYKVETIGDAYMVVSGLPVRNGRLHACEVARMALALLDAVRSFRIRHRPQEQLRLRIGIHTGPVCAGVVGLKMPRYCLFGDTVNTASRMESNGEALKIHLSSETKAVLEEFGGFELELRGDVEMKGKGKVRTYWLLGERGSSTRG
Procedure, shortened: as §1

Compound | AC50 (human NPR1) [nM] | Human NPR1 Amax (% of ANP) (human NPR1) | AC50 (monkey NPR1) [nM] | Monkey NPR1 Amax (% of ANP) (monkey NPR1)
CN(c1nc2c(c(N[C@@H](CN3C4CCCC3CCC4)c3cnn(C)c3)n1)C[C@H](c1ccccc1)CC2)[C@H](C1CC1)[C@H]1CC[C@H](C(=O)O)CC1 [Compound 133, (1R,4r)-4-((R)-(((R)-4-(((R)-2-((1S,5S)-9-azabicyclo[3.3.1]nonan-9-yl)-1-(1-methyl-1H-pyrazol-4-yl)ethyl)amino)-6-phenyl-5,6,7,8-tetrahydroquinazolin-2-yl)(methyl)amino)(cyclopropyl)methyl)cyclohexane-1-carboxylic acid] | 765 | 95.978 % of ANP | 647 | 99.809 % of ANP
CC[C@H]([C@H]1CC[C@H](C(=O)O)CC1)N(C)c1nc2c(c(N[C@@H](CN3C4CCCC3CCC4)c3cnn(CC)c3)n1)C[C@@H](c1cccc(F)c1)CC2 [Compound 52, (1R,4r)-4-((R)-1-(((S)-4-(((R)-2-((1S,5S)-9-azabicyclo[3.3.1]nonan-9-yl)-1-(1-ethyl-1H-pyrazol-4-yl)ethyl)amino)-6-(3-fluorophenyl)-5,6,7,8-tetrahydroquinazolin-2-yl)(methyl)amino)propyl)cyclohexane-1-carboxylic acid] | 188 | 97.880 % of ANP | 167 | 106.496 % of ANP
CC[C@H]([C@H]1CC[C@H](C(=O)O)CC1)N(C)c1nc2c(c(N[C@@H](CN3C4CCCC3CC4)c3cnn(C)c3)n1)C[C@H](c1ccc(F)cc1)CC2 [Compound 31, (1R,4r)-4-((1R)-1-(((6R)-4-(((1R)-2-(8-azabicyclo[3.2.1]octan-8-yl)-1-(1-methyl-1H-pyrazol-4-yl)ethyl)amino)-6-(4-fluorophenyl)-5,6,7,8-tetrahydroquinazolin-2-yl)(methyl)amino)propyl)cyclohexane-1-carboxylic acid] | 144 | 92.978 % of ANP | 89 | 100.914 % of ANP
CC[C@H]([C@H]1CC[C@H](C(=O)O)CC1)N(C)c1nc2c(c(N[C@@H](CN3C4CCC3CC4)c3cnn(C)c3)n1)C[C@H](c1cccc(F)c1)CC2 [Compound 57, (1R,4r)-4-((R)-1-(((R)-4-(((R)-2-(7-azabicyclo[2.2.1]heptan-7-yl)-1-(1-methyl-1H-pyrazol-4-yl)ethyl)amino)-6-(3-fluorophenyl)-5,6,7,8-tetrahydroquinazolin-2-yl)(methyl)amino)propyl)cyclohexane-1-carboxylic acid] | 199 | 101.340 % of ANP | 82 | 103.000 % of ANP
CC[C@H]([C@H]1CC[C@H](C(=O)O)CC1)N(C)c1nc2c(c(N[C@@H](CN3C[C@H]4C[C@@H](C3)C4O)c3cnn(C)c3)n1)C[C@H](c1ccccc1)CC2 (stereo partly drawn) [Compound 138, (1R,4r)-4-((1R)-1-(((6R)-4-(((1R)-2-((1R,5S)-6-hydroxy-3-azabicyclo[3.1.1]heptan-3-yl)-1-(1-methyl-1H-pyrazol-4-yl)ethyl)amino)-6-phenyl-5,6,7,8-tetrahydroquinazolin-2-yl)(methyl)amino)propyl)cyclohexane-1-carboxylic acid] | 852 | 105.993 % of ANP | 734 | 101.929 % of ANP
CC[C@@H](Nc1nc2c(c(N[C@@H](CN3C4CCCC3CC4)c3csc(C)n3)n1)C[C@H](c1cccc(F)c1)CC2)[C@H]1CC[C@H](C(=O)O)CC1 [Compound 127, (1R,4r)-4-((1R)-1-(((6R)-4-(((1S)-2-(8-azabicyclo[3.2.1]octan-8-yl)-1-(2-methylthiazol-4-yl)ethyl)amino)-6-(3-fluorophenyl)-5,6,7,8-tetrahydroquinazolin-2-yl)amino)propyl)cyclohexane-1-carboxylic acid] | 623 | 102.596 % of ANP | 355 | 102.089 % of ANP
